# Reference: PubChem BioAssay AID1963827 (Molecular Pharmacology Branch, DTP, NCI, 2024)
# System: 994946-033-R-J1-PDC complex spheroid viability
# Experiment: Anticancer human tumor 994946-033-R-J1-PDC patient-derived melanoma cell line growth inhibition [POLQ]
# Conditions: for IC50: curve of first compound; for viability, T/C: stronger effect = lower value
# Method: Multicellular complex tumor spheroid response to Polymerase (POL) inhibitors (novobiocin, ART-558, RP6685) in combination with a variety of drugs and investigational agents in selected tumor cell lines
# The POL inhibitors (novobiocin, ART-558, and RP6685) were evaluated both individually and in combination with standard of care and investigational anticancer small molecules within a complex spheroid model of solid tumors. . Complex spheroids include a stromal component modeled by human endothelial cells (HUVEC) and fibroblasts modeled by human mesenchymal stem cells (MSCs). The concentration ranges selected for each drug and investigational agent were based upon clinically achievable concentrations if the clinical Cmax of the agent was known.
# Compounds. The drugs and investigational agents: novobiocin (NSC847541), ART-558 (NSC835418), RP-6685 (NSC848927), peposertib (NSC802822), ceralasertib (NSC780249), elimusertib (NSC800525), camonsertib (NSC841442), AZD-1390 (NSC803789), olaparib (NSC753686), talazoparib (NSC767125), rucaparib (NSC756644), sotorasib (NSC818433), MRTX-1133 (NSC836407), SN-38 (NSC673596), topotecan (NSC609699), epotoside (NSC141540), doxorubicin (NSC123127), gemcitabine (NSC613327), 5-fluorouracil (NSC19893), paclitaxel (NSC125973), vemurafenib (NSC761431), MSA-2 (NSC828583), SN-011 (NSC837082), adavosertib (NSC754352), prexasertib (NSC758257), carboplatin (NSC241240) and oxaliplatin (NSC266046), were obtained from the National Cancer Institute (NCI) Developmental Therapeutics Program Chemical Repository (21). The FDA-approved anticancer drug set is available from the Developmental Therapeutics Program at https://dtp.cancer.gov/organization/dscb/obtaining/. […] The stock solutions were prepared in dimethyl sulfoxide (DMSO, Sigma-Aldrich, St. Louis, MO, cat. D2650), except for the platinum compounds which were prepared in saline (Quality Biological, Gaithersburg, MD, cat. 114-055-101), at 800-fold the tested concentration and stored at -70 degrees C prior to their use. All drugs and investigational agents were tested over a range starting from a high concentration at or near the clinical Cmax and decreasing in half-log increments. If the clinical Cmax for an agent had not been determined, the highest concentration tested was 10 microM, except for SN-38, which was tested at a high concentration of 1 microM.
# Cell Culture. All cells were maintained in an incubator at 37 degrees C and 5% CO2 with 95% humidity. The PDC lines were cultured according to standard operating procedures established by the NCI PDMR (https://pdmr.cancer.gov). Table 3 of the manuscript, lists the cell lines along with the number of the three cell types plated to form the mct-spheroids and media for tumor cell growth. After thawing, all PDC lines, except 997537-175-T-J1-PDC and 415267-285-R-J2-PDC, were cultured in Matrigel-coated flasks prepared with a working solution of 1X Ham's F-12 nutrient mix, without supplementation (Thermo Fisher Scientific, cat. 11765054), 100 U/mL penicillin-streptomycin (Thermo Fisher Scientific, cat. 15140122), and 2.5% Matrigel (Corning Inc., Corning, NY, cat. 354248) for the first three passages. The two PDC lines 997537-175-T-J1-PDC and 415267-285-R-J2-PDC were cultured on uncoated flasks. The 857933-349-R-J2-PDC line was cultured in 6C/Colon 1B media containing advanced DMEM/F-12 (Thermo Fisher Scientific, cat. 12634028), 10 mM HEPES (Thermo Fisher Scientific, cat. 15630080), 1X GlutaMAX supplement (Thermo Fisher Scientific, cat. 35050061), 0.1 mg/mL primocin (InvivoGen, San Diego, CA, cat. ant-pm-2), 10% defined fetal bovine serum, heat inactivated (HyClone Laboratories Inc., Logan, UT, cat. SH30070.03HI), 50% L-WRN conditioned media (ATCC, cat. CRL-3276), 1.25 mM N-Acetyl-L-cysteine (Sigma-Aldrich, cat. A9165), 10 mM nicotinamide (Sigma-Aldrich, cat. N0636), 1X B-27 supplement (Thermo Fisher Scientific, cat. 17504044), 1X N-2 supplement (Thermo Fisher Scientific, cat. […]
# 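Further: spheroids exposed to drugs for 7 days.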
# 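Wherever viability, T/C is given: 100% = DMSO vehicle treated spheroids.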
smiles,measurement,setting,value
CC1COCCN1c1cc(-c2ccnn2C)c2ccnc(-c3ccn[nH]3)c2n1 (configuration not stated) + COC1C(OC(N)=O)C(O)C(Oc2ccc3c(O)c(NC(=O)c4ccc(O)c(CC=C(C)C)c4)c(=O)oc3c2C)OC1(C)C,IC50,second compound 0.0316 µM,48.2 nM
same,IC50,second compound 0.1 µM,79.2 nM
same,IC50,second compound 0.316 µM,151 nM
same,IC50,second compound 1 µM,77 nM
same,IC50,second compound 3.16 µM,57 nM
same,IC50,second compound 10 µM,58.4 nM
same,"viability, T/C","second compound 0.0316 µM, first compound 0.0316 µM",58.2%
same,"viability, T/C","second compound 0.0316 µM, first compound 0.1 µM",33.9%
same,"viability, T/C","second compound 0.0316 µM, first compound 0.316 µM",31.6%
same,"viability, T/C","second compound 0.0316 µM, first compound 1 µM",18.4%
same,"viability, T/C","second compound 0.0316 µM, first compound 3.16 µM",20.4%
same,"viability, T/C","second compound 0.0316 µM, first compound 10 µM",11.8%
same,"viability, T/C","second compound 0.1 µM, first compound 0.0316 µM",107%
same,"viability, T/C","second compound 0.1 µM, first compound 0.1 µM",35.2%
same,"viability, T/C","second compound 0.1 µM, first compound 0.316 µM",21.5%
same,"viability, T/C","second compound 0.1 µM, first compound 1 µM",30.3%
same,"viability, T/C","second compound 0.1 µM, first compound 3.16 µM",16.8%
same,"viability, T/C","second compound 0.1 µM, first compound 10 µM",12.3%
same,"viability, T/C","second compound 0.316 µM, first compound 0.0316 µM",72.3%
same,"viability, T/C","second compound 0.316 µM, first compound 0.1 µM",60.4%
same,"viability, T/C","second compound 0.316 µM, first compound 0.316 µM",31.5%
same,"viability, T/C","second compound 0.316 µM, first compound 1 µM",22%
same,"viability, T/C","second compound 0.316 µM, first compound 3.16 µM",24.5%
same,"viability, T/C","second compound 0.316 µM, first compound 10 µM",13.6%
same,"viability, T/C","second compound 1 µM, first compound 0.0316 µM",100%
same,"viability, T/C","second compound 1 µM, first compound 0.1 µM",34.5%
same,"viability, T/C","second compound 1 µM, first compound 0.316 µM",23.9%
same,"viability, T/C","second compound 1 µM, first compound 1 µM",23.2%
same,"viability, T/C","second compound 1 µM, first compound 3.16 µM",20.8%
same,"viability, T/C","second compound 1 µM, first compound 10 µM",12.6%
same,"viability, T/C","second compound 3.16 µM, first compound 0.0316 µM",76.4%
same,"viability, T/C","second compound 3.16 µM, first compound 0.1 µM",24.7%
same,"viability, T/C","second compound 3.16 µM, first compound 0.316 µM",18.2%
same,"viability, T/C","second compound 3.16 µM, first compound 1 µM",13.4%
same,"viability, T/C","second compound 3.16 µM, first compound 3.16 µM",14.9%
same,"viability, T/C","second compound 3.16 µM, first compound 10 µM",13.5%
same,"viability, T/C","second compound 10 µM, first compound 0.0316 µM",69.2%
same,"viability, T/C","second compound 10 µM, first compound 0.1 µM",32%
same,"viability, T/C","second compound 10 µM, first compound 0.316 µM",21.2%
same,"viability, T/C","second compound 10 µM, first compound 1 µM",32%
same,"viability, T/C","second compound 10 µM, first compound 3.16 µM",18.5%
same,"viability, T/C","second compound 10 µM, first compound 10 µM",10.3%
